According to ChEMBL document CHEMBL3271977, “Stereospecific interaction of the quaternized opiate, N-methyllevorphanol, with opiate receptors” (J Med Chem, 1976):
Calls of active or inactive are those of the source. The rule behind the calls is not given here.

Tests used:
Ileum [1] = assay: Inhibition of electrically-induced contraction of guinea pig ileum longitudinal muscle with myentric plexus up to 10^-5 M; assay type: functional, tissue-based; conditions: Cavia porcellus
Ileum [2] = assay: Inhibition of electrically-induced contraction of guinea pig ileum longitudinal muscle with myentric plexus at 4 X 10^-5 M; assay type: functional, tissue-based; conditions: Cavia porcellus
Ileum [3] = assay: Inhibition of electrically-induced contraction of guinea pig ileum longitudinal muscle with myentric plexus; assay type: functional, tissue-based; conditions: Cavia porcellus
Ileum [4] = assay: Inhibition of electrically-induced contraction of guinea pig ileum longitudinal muscle with myentric plexus in presence of naloxone; assay type: functional, tissue-based; conditions: Cavia porcellus
Ileum [5] = assay: Reduction in response of guinea pig ileum longitudinal muscle to exogenous acetylcholine; assay type: functional, tissue-based; conditions: Cavia porcellus
Ileum [6] = assay: Stimulation of guinea pig ileum longitudinal muscle contraction relative to levorphanol; assay type: functional, Cavia porcellus
Ileum [7] = assay: Inhibition of electrically-induced contraction of guinea pig ileum longitudinal muscle relative to levorphanol; assay type: functional, Cavia porcellus
[8] = Displacement of [3H]etorphine from opioid receptor in guinea pig brain homogenate by scintillation counting analysis; assay type: tissue-based, Cavia porcellus

Compound	inhibition (Ileum [1])	inhibition (Ileum [2])	IC50 (Ileum [3]) [nM]	inhibition (Ileum [3])	inhibition (Ileum [4])	inhibition (Ileum [5])	fold change (FC) (Ileum [6])	fold change (FC) (Ileum [7])	IC50 [8] [nM]
C[N+]1(C)CC[C@@]23CCCC[C@@H]2[C@@H]1Cc1ccc(O)cc13	inactive	Active							
C[N+]1(C)CC[C@]23CCCC[C@H]2[C@H]1Cc1ccc(O)cc13.[I-]			610	Dose-dependent effect	inactive	inactive	0.068	0.032	520
CN1CC[C@]23CCCC[C@H]2[C@H]1Cc1ccc(O)cc13 [LEVORPHANOL]									8
